Measurements reported in patent US11083735B2, “Methods for treating sleep disorders, sleep disturbances, and related symptoms using aminosterol compositions” (Enterin, Inc., priority 2017, dated 2021).

Key:
[1] = system: patients with PD and constipation; assay: Phase 2 trial Stage 1: adverse events
Procedure: In Stage 1, ten (10) PD patients received a single escalating dose of squalamine (ENT-01) every 3-7 days beginning at 25 mg and continuing up to 200 mg or the limit of tolerability, followed by 2-weeks of wash-out. Duration of this part of the trial was 22-57 days. The 10 subjects in the sentinel group were assigned to Cohort 1 and participated in 8 single dosing periods. Tolerability limits included diarrhea or vomiting.
Each dose period was staggered, so that subjects 1-2 were administered a single dose of the drug at the lowest dose of 25 mg. Once 24 hours have elapsed, and provided there are no safety concerns, the patient was sent home and brought back on day 4-8 for the next dose. During the days the subjects are home, they completed the daily diaries and e-mailed them to the study coordinators. Subjects 3-10 were dosed after the first 2 subjects have been observed for 72 hours, i.e. on Day 4. Subjects 1-2 were also brought back on Day 4-8 and given a single dose of 50 mg. Once another 24 hours have elapsed and provided there are no safety concerns, the patients were all sent home and instructed to return on Day 7 for the next dosing level. This single dosing regimen was continued until each subject was given a single dose of 200 mg or has reached a dose limiting toxicity (DLT). DLT was the dose which induces repeated vomiting, diarrhea, abdominal pain or symptomatic postural hypotension within 24 hours of dosing.
Adverse events were coded using the current version of MedDRA. Severity of AEs were assessed by investigators according to CTCAE (v4.03): Grade 1 is labeled as Mild, Grade 2 as Moderate, and Grade 3 and above as Severe. […] The number (percentage) of subjects who experienced an AE during escalation and fixed dosing periods were summarized by dose level and overall for each stage. The denominator for calculating the percentages were based on the number of subjects ever exposed to each dose and overall.

[2] = system: mice with constipation due to overexpression of human αS; assay: Oral squalamine in mice with constipation due to overexpression of human αS; format: in vivo, mouse; conditions: orally administered (West et al, manuscript in preparation)
[3] = Stage 1, 10 dosed, Unrelated to ENT-01

SMILES: CC(C)[C@@H](CC[C@@H](C)[C@H]1CC[C@H]2[C@@H]3[C@H](O)C[C@H]4C[C@@H](NCCCNCCCCN)CC[C@]4(C)[C@H]3CC[C@]12C)OS(=O)(=O)O (single isomer, unassigned; ent-01) [ENT-01]
- AEs confined to the GI tract ([1]; Stage 1): 88%
- Diarrhea, patients ([1]; Stage 1, 4/10): 40%
- nausea, patients ([1]; Stage 1, 4/10): 40%
- Abdominal pain, Mild ([1]; Stage 1, 10 dosed): 2(20) n, %
- Abdominal pain, Moderate ([1]; Stage 1, 10 dosed): 3(30) n, %
- Blood in urine, Moderate ([1]; Stage 1, 10 dosed): 0 n, %
- Diarrhea, Mild ([1]; Stage 1, 10 dosed): 1(10) n, %
- Diarrhea, Moderate ([1]; Stage 1, 10 dosed): 3(30) n, %
- Diarrhea, Severe ([1]; Stage 1, 10 dosed): 0 n, %
- Difficulty falling asleep, Mild ([1]; Stage 1, 10 dosed): 0 n, %
- Difficulty falling asleep, Moderate ([1]; Stage 1, 10 dosed): 0 n, %
- Dizziness, Mild ([1]; Stage 1, 10 dosed): 0 n, %
- Dizziness, Moderate ([1]; Stage 1, 10 dosed): 0 n, %
- Flatulence, Mild ([1]; Stage 1, 10 dosed): 2(20) n, %
- Flatulence, Moderate ([1]; Stage 1, 10 dosed): 0 n, %
- Headache, Mild ([1]; Stage 1, 10 dosed): 1(10) n, %
- Headache, Moderate ([1]; Stage 1, 10 dosed): 0 n, %
- Increased urinary frequency, Mild ([1]; Stage 1, 10 dosed): 0 n, %
- Increased urinary frequency, Moderate ([1]; Stage 1, 10 dosed): 0 n, %
- Loss of appetite, Moderate ([1]; Stage 1, 10 dosed): 0 n, %
- Lower GI bleed, Severe ([1]; Stage 1, 10 dosed): 0 n, %
- Nausea, Mild ([1]; Stage 1, 10 dosed): 4(40) n, %
- Nausea, Moderate ([1]; Stage 1, 10 dosed): 0 n, %
- Skin lesions-rash, Mild ([1]; Stage 1, 10 dosed): 0 n, %
- Skin lesions-rash, Moderate ([1]; Stage 1, 10 dosed): 0 n, %
- Urinary retention, Mild ([1]; Stage 1, 10 dosed): 0 n, %
- Urinary retention, Moderate ([1]; Stage 1, 10 dosed): 0 n, %
- Vomiting, Mild ([1]; Stage 1, 10 dosed): 1(10) n, %
- Vomiting, Moderate ([1]; Stage 1, 10 dosed): 0 n, %
- Worsening acid reflux, Mild ([1]; Stage 1, 10 dosed): 0 n, %
- Worsening acid reflux, Moderate ([1]; Stage 1, 10 dosed): 0 n, %
- Worsening hemorrhoid, Mild ([1]; Stage 1, 10 dosed): 0 n, %
- Worsening hemorrhoid, Moderate ([1]; Stage 1, 10 dosed): 0 n, %
- Blood in urine, Mild [1, 3]: 1(10) n, %
- Loss of appetite, Mild [1, 3]: 1(10) n, %
- Common adverse events by dose: Diarrhea ([1]; Stage 1, dose 25 mg): 1
- Common adverse events by dose: Nausea ([1]; Stage 1, dose 25 mg): 0
- Common adverse events by dose: Vomiting ([1]; Stage 1, dose 25 mg): 0
- Common adverse events by dose: Diarrhea ([1]; Stage 1, dose 50 mg): 1
- Common adverse events by dose: Nausea ([1]; Stage 1, dose 50 mg): 0
- Common adverse events by dose: Vomiting ([1]; Stage 1, dose 50 mg): 0
- Common adverse events by dose: Diarrhea ([1]; Stage 1, dose 75 mg): 1
- Common adverse events by dose: Nausea ([1]; Stage 1, dose 75 mg): 0
- Common adverse events by dose: Vomiting ([1]; Stage 1, dose 75 mg): 0
- Common adverse events by dose: Diarrhea ([1]; Stage 1, dose 100 mg): 0
- Common adverse events by dose: Nausea ([1]; Stage 1, dose 100 mg): 1
- Common adverse events by dose: Vomiting ([1]; Stage 1, dose 100 mg): 1
- Common adverse events by dose: Diarrhea ([1]; Stage 1, dose 125 mg): 1
- Common adverse events by dose: Nausea ([1]; Stage 1, dose 125 mg): 2
- Common adverse events by dose: Vomiting ([1]; Stage 1, dose 125 mg): 1
- Common adverse events by dose: Diarrhea ([1]; Stage 1, dose 150 mg): 1
- Common adverse events by dose: Nausea ([1]; Stage 1, dose 150 mg): 0
- Common adverse events by dose: Vomiting ([1]; Stage 1, dose 150 mg): 0
- Common adverse events by dose: Diarrhea ([1]; Stage 1, dose 175 mg): 1
- Common adverse events by dose: Nausea ([1]; Stage 1, dose 175 mg): 1
- Common adverse events by dose: Vomiting ([1]; Stage 1, dose 175 mg): 0
- Common adverse events by dose: Diarrhea ([1]; Stage 1, dose 200 mg): 0
- Common adverse events by dose: Nausea ([1]; Stage 1, dose 200 mg): 2
- Common adverse events by dose: Vomiting ([1]; Stage 1, dose 200 mg): 0

SMILES: CC(C)[C@@H](CC[C@@H](C)[C@H]1CC[C@H]2[C@@H]3[C@H](O)C[C@H]4C[C@@H](NCCCNCCCCN)CC[C@]4(C)[C@H]3CC[C@]12C)OS(=O)(=O)O [squalamine]
- gastro-intestinal motility [2]: stimulates gastro-intestinal motility
